Test results as given in US7135292B2, “Analysis and modification of gene expression in marine invertebrate cells” (Harbor Branch Oceanographic Institution, Inc., priority 2002, dated 2006).

Test system: Axinella corrugata cell cultures
Test: Human-sequence microarray (Gene Filters) analysis of gene expression, PHA-treated vs untreated sponge cell cultures
Assay type: cell-based
Details: PHA treated/untreated, 12 h
Excerpt: Sponge Cells. Cells were obtained from cryopreserved stocks at Harbor Branch Oceanographic Institution. All cells were derived from Axinella corrugata specimens collected in the waters of Florida, the Bahamas, and the Caribbean Sea, and were cryopreserved according to Pomponi et al. (Pomponi et al. 1997b supra). This sponge is relatively common and easy to collect, amenable to culture efforts, and produces the bioactive compound, stevensine, in vitro (Pomponi et al. 1997b supra). Enriched fractions of dissociated sponge cells were prepared, cryopreserved, and thawed according to previously published methods (Pomponi et al. 1997b supra). Cells were incubated at 22–25° C. in a growth medium consisting of a modified and supplemented commercial formulation (Willoughby and Pomponi 2000 supra). The length of the incubation period was based on my unpublished observation of elevated DNA and protein contents (9%, P=0.034, and 9%, P=0.038, respectively) in PHA-treated cultures, according to fluorescent assays of 6 replicate comparisons (Willoughby and Pomponi 2000 supra). Since the effects were observed between 6 and 18 hours after treatment, cells were cultured for 12-hour periods representing the center point of the period of observed changes. Two sets of cultures were incubated with approximately 2×10^8 cells per T-75 flask—a control set and an experimental set treated with 1.5% phytohemagglutinin (PHA) (Life Technologies, M-form).
RNA Isolation. RNA isolation was performed on unrinsed, pelleted cells. Pellets were quickly frozen in a dry ice alcohol bath and stored at −70° C. until RNA isolation. The Qiagen RNeasy® protocol was used, with the following modifications. Samples were disrupted with a micropestle or homogenized by the rotor-stator method, using twice the recommended volume of lysis solution. Prior to column loading, samples were centrifuged through a Qiashredder® column to complete homogenization and remove insoluble material. Supernatant was collected for use in the rest of the protocol. During the first wash step, samples were incubated on the column with DNase 1 (Qiagen or Ambion) for 15 minutes. After the final wash, samples were incubated on the column with the RNase free elution water for 15 minutes prior to elution. Sub-samples were diluted 20× and quantified on a Genequant® spectrophotometer.
cDNA Labeling. Sub-samples of the isolated total RNA (8 μl) were primed with oligo dT (10–20 mer) (Research Genetics, Inc.) for 10 minutes at 70° C., then briefly chilled on ice, followed by addition of 2 volumes of RT cocktail based upon the Life Technologies Superscript II® protocol (containing dATP, dGTP, dTTP, and α-^33P dCTP [NEN Easy Tides®, 3000 Ci/mmol]). The mixture was incubated for 90 minutes at 37° C., and diluted to 100 μl for purification on a Bio-Spin column (Boi-Rad) according to the Gene Filter® (Research Genetics, Inc.) recommended protocol. The resultant labeled probes were then denatured for 3 minutes in a boiling water bath prior to incorporation into the hybridization solution.
Microarrays. Research Genetics Gene Filters®, version 211, were employed in this study. These microarrays feature over 4000 distinct sequence-verified genes spotted onto a 5×7 cm nylon membrane. The DNA at each spot represents approximately 1 kb from the 3′ end of the gene. The microarrays also include spots of total genomic DNA (see FIG. 5). The 211 series is constructed from human sequences. A cross-referenced database listing of all the genes represented on the array is available at http://www.resgen.com. The 2 genes referenced in this work carry the I.M.A.G.E. Consortium (Lennon, G. G., C. Auffray, M. Polymeropoulos and M. B. Soares 1996, Genomics 33:151–152), Clone IDs 81408 (calcineurin B) and 858292 (cdc10).
Hybridization. […]

Substance: phytohemagglutinin [PHA]
- Ratio, MHC class II DQ-beta associated with DR2, DQw1 protein (No. 1): 0.492
- Ratio, Collagen, type II, alpha 1 (primary osteoarthritis, spondyloepiphyseal dysplasia, congenital) (No. 2): 0.384
- Ratio, Hemoglobin, alpha 1 (No. 3): 0.157
- Ratio, Heat shock 60 kD protein 1 (chaperonin) (No. 4): 2.443
- Ratio, Interleukin 7 receptor (No. 5): 0.156
- Ratio, Cytochrome P450, subfamily IVA, polypeptide 11 (No. 6): 0.310
- Ratio, Human metallothionein I-B gene (No. 7): 0.388
- Ratio, Homo sapiens NF-E2 protein (NF-E2) mRNA, complete cds (No. 8): 2.223
- Ratio, Tissue inhibitor of metalloproteinase 1 (erythroid potentiating activity, collagenase inhibitor) (No. 9): 0.252
- Ratio, Adenylate kinase 1 (No. 10): 0.055
- Ratio, Oxytocin receptor (No. 11): 0.084
- Ratio, Homo sapiens mRNA for epiregulin, complete cds (No. 12): 0.101
- Ratio, Collagen, type V, alpha (No. 13): 0.137
- Ratio, MpV17 transgene, murine homolog, glomerulosclerosis (No. 14): 0.319
- Ratio, Tyrosine 3-monooxygenase/tryptophan 5-monooxygenase activation protein, zeta polypeptide (No. 15): 9.835
- Ratio, Von Hippel-Lindau syndrome (No. 16): 2.707
- Ratio, Homo sapiens TNF-alpha stimulated ABC protein (ABC50) mRNA, complete cds (No. 17): 3.865
- Ratio, Human brain mRNA for photolyase homolog, complete cds (No. 18): 2.486
- Ratio, Human BTG2 (BTG2) mRNA, complete cds (No. 19): 2.431
- Ratio, Membrane metallo-endopeptidase (neutral endopeptidase, enkephalinase, CALLA, CD10) (No. 20): 0.169
- Ratio, Calcineurin B (No. 21): 0.318
- Ratio, Cell division cycle 10 (homologous to CDC10 of S. cerevisiae) (No. 22): 2.302
- Ratio, Human renal cell carcinoma antigen RAGE-1 mRNA, complete putative cds (No. 23): 0.477
- Ratio, Homo sapiens putative OSP like protein mRNA, partial cds (No. 24): 0.491
- Ratio, H. sapiens mRNA for translin associated protein X (No. 25): 2.631
- Ratio, H. sapiens mRNA for phosphate cyclase (No. 26): 0.395
- Ratio, JNK activating kinase 1 (No. 27): 0.170
- Ratio, Collagen, type IX, alpha 3 (No. 28): 47.686
- Ratio, Non-catalytic region of tyrosine kinase (No. 29): 0.233
- Ratio, Triosephosphate isomerase 1 (No. 30): 0.357
- Ratio, Calreticulin Precursor (No. 31): 12.868
- Ratio, Human transportin (TRN) mRNA, complete cds (No. 32): 3.328
- Ratio, Fanconi anemia complementation group C (No. 33): 0.342
- Ratio, Zinc finger protein basonuclin (No. 34): 0.417
- Ratio, Autosomal dominant polycystic kidney disease type II (No. 35): 0.224
- Ratio, Double-stranded RNA adenosine deaminase (No. 36): 0.456
- Ratio, Dual specificity protein phosphatase PAC-1 (No. 37): 0.175
- Ratio, Homo sapiens Tax interaction protein 33 mRNA, partial cds (No. 38): 0.426
- Ratio, H. sapiens mRNA for M-phase phosphoprotein, mpp5 (No. 39): 2.970
- Ratio, Nucleolysin TIA-1 (No. 40): 0.430
- Ratio, Homo sapiens mRNA for ISLR, complete cds (No. 41): 12.597
- Ratio, H. sapiens mRNA for M130 antigen (No. 42): 0.443
- Ratio, Human tRNA-guanine transglycosylase mRNA, complete cds (No. 43): 0.213
- Ratio, Homo sapiens mRNA for vesicle associated membrane protein 2 (VAMP2) (No. 44): 3.925
- Ratio, Erythrocyte membrane protein band 4.9 (dematin) (No. 45): 0.408
- Ratio, 6-Pyruvol tetrahydrobiopterin synthase (No. 46): 0.440
- Ratio, Villin (No. 47): 0.008
- Ratio, Multidrug reistance protein 1 (No. 48): 3.272
- Ratio, Human histone H2B.1 mRNA, 3′ end (No. 49): 0.247
- Ratio, Human heregulin-betal gene, complete cds (No. 50): 5.582
- Ratio, Amyloid P component, serum (No. 51): 3.994
- Ratio, Alternative guanine nucleotide-binding regulatory protein (G) alpha-inhibitory-subunit (No. 52): 0.462
- Ratio, Ribosomal protein S6 kinase, 90 kD, polypeptide 2 (No. 53): 0.252
- Ratio, Interleukin 15 receptor alpha chain (No. 54): 3.996
- Ratio, Cadherin 11 (OB-cadherin) (No. 55): 0.425
